Assay results taken from publication PMC8546149, “Antibiotic-chemoattractants enhance neutrophil clearance of Staphylococcus aureus” (Nature Communications, 2021).
In brackets after ≈: the same amount, converted by molar mass. Several values for one entry are separate records, joined by “and”; a condition that tells them apart may be missing. Equal entries are not always repeated. Non-standard residues stand in square brackets, D forms with d. No end group written: not given here. *: point of attachment. Pra = C#CC[C@H](N)C(=O)O; For = O=C*

T1: formyl peptide receptor 1 (FPR1) (human, UniProt P21462 1-350)
T1 sequence (looked up): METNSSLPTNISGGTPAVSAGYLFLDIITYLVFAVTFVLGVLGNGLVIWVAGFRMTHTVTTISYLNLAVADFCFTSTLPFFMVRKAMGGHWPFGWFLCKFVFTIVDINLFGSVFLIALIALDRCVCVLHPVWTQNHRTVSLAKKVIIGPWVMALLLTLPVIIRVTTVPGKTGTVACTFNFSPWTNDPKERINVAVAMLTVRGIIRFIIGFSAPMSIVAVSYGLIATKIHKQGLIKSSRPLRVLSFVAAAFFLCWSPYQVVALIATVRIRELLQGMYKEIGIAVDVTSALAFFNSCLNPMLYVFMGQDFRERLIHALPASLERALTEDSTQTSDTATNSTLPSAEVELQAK

B1: fMLFG = van (fMLFG conjugated to the C-terminus of vancomycin, no PEG linker) (peptide)
peptide: For-MLFG[Pra]
modifications: also: C-terminal propargylglycine linked by click (triazole) to azide-modified vancomycin carboxyl group

Experiments:
human neutrophils = assay: Transwell chemotaxis assay; format: cell-based; conditions: any of the concentrations tested (1-1000 nM)
Procedure: For neutrophils used in transwell assays whole blood was collected in the presence of EDTA, under approval from Monash University Human Research Ethics Committee (project #9572) with written informed consent from healthy human donors; donors were de-identified.
The chemotaxis assay was performed in a 96-transwell plate with 3 µm pores (Corning). The plate was prepared by adding 200 μL of peptide in chemotaxis buffer (4 mM L-glutamine, 0.5% Human Serum Albumin, Sigma, 49% Roswell Park Memorial Institute (RPMI) 1640, 49% Hank’s buffered salt solution, ThermoFisher) into the bottom receiving wells at a final peptide concentration of 1, 10, 100, and 1000 nM (0.02% DMSO). The negative control of 0.02% DMSO was used. The top of the transwell plate was loaded with 200,000 neutrophils in 75 μL chemotaxis buffer. The plate was incubated in the dark at 37 °C with 5% CO2 for 1.5 h. […] Elastase activity was used as an indicator of neutrophil numbers and was measured by adding the chromogenic elastase substrate N-methoxysuccinyl-Ala-Ala-Pro-Val-p-nitroanilide (Sigma) at a final concentration of 1 mM[35]. After 30 min at room temperature, the absorbance at 405 nm was determined using a microplate reader (Clariostar plate reader, BMG). […]

S. aureus (SH1000-GFP) = assay: Infection-on-a-chip S. aureus growth (GFP area) with neutrophils; format: cell-based, Staphylococcus aureus
Procedure: Use of this microfluidic device for monitoring migration of neutrophils and control of the S. aureus growth in cell culture medium has been outlined in detail previously. Briefly, microfluidic devices were primed with S. aureus (SH1000-GFP, 1 × 10^6/mL) in culture media (Iscove’s Modified Dulbecco’s Medium + 10% Fetal Bovine Serum) by loading the outer chamber and applying vacuum to draw bacteria into the inner chambers. The outer chamber was then washed by pushing 200 µL of media through the device using a pipette, and loaded with neutrophils (5.5 × 10^6/mL, stained with Hoechst 33342 dye, 10 min at 32 μM). Additionally, neutrophil phagocytosis was monitored by using pHrodo Red S. aureus BioParticles® (Life Technologies) in replace of live S. aureus cells. […] The concentration of cells were determined by hemocytometer.
Kinetics of neutrophil migration, S. aureus growth and phagocytosis was determined using imaging with an automated Nikon Eclipse TiE inverted wide-field microscope with stage control and perfect focus system run through the Nikon NIS element v4. […] The percentage of neutrophils recruited into the chamber was determined relative to the total number of neutrophils in each FOV divided by the number of chambers visible. […] The pHrodo or S. aureus GFP fluorescence within the microchamber was calculated by thresholding the image and measuring the area in FIJI[36]. […]

[1] = Mouse pneumonia model, lung histology (alveoli space, nuclei); format: in vivo; set-up: Area of lung: unit not given here; conditions: each line is an individual value, listed as Van
Procedure: For pathology assessment, excised lungs from one mouse for each of the treatment group was fixed in 10% buffered formalin before undergoing routine histological processing (Monash University Histology Platform). Lungs were embedded in paraffin, cut into 5 µm thick sections and stained with hematoxylin and eosin. Tissue pathology was assessed by a veterinary pathologist (Dr Mark Williamson, Gribbles Veterinary Pathology, Clayton, Australia).
The loss of alveoli structure was quantified in the H&E sections by determining the area of white space in six FOV (1.8 × 1.2 mm) in the outer lobes of the lung (threshold of 0–240). In addition, the number of nuclei in these FOV were also determined. This was performed by isolating nuclei in the image (threshold of 0–130) and then using the analyze particle function (particles 80–4000, circularity 0.05–1) in FIJI[36] to count the number of nuclei detected. Data were plotted using GraphPad Prism 8 software.

S. aureus = assay: Antimicrobial microbroth dilution assay (growth, MIC); format: cell-based; conditions: Staphylococcus aureus, 20 h, 90% growth inhibition at 20 h, ±SD, n=4
Procedure: All bacterial isolates used in this study are listed in Supplementary Table 1. The American Type Culture Collection strain (ATCC 29213) and S. aureus strains were cultured onto brain heart infusion (BHI) agar (BD) or into broth (BD) and grown at 37 °C with shaking. S. aureus was grown in cation adjusted Muller Hinton Broth II (CAMHB, Becton Dickson) for testing. All bacterial strains were stored in glycerol broth at −80 °C.
Antimicrobial activity of the antibiotic-chemoattractants was determined as per the Clinical and Laboratory Standards Institute guidelines for microbroth dilution assays. Compounds stocks were prepared as two-fold serial dilution at 10x stock concentration required (final concentration of DMSO 0.5%). Growth of the S. aureus (5 × 10^5 CFU/mL in CAMHB) was monitored in 96-well flat bottom polypropylene microtiter plates (Greiner) covered with BreatheEasy membranes (Diversified Biotech) and absorbance of each well was measured at 595 nm every 4 h for 24 h (Clariostar plate reader, software v5.20R5, BMG). The percentage growth was calculated relative to the no compound control and the average of three biological replicates plotted using GraphPad Prism 9 software. The minimum inhibitory concentration was determined by the lowest drug concentration that inhibited bacterial growth to 90% compared to the 0 μM control.

[2] = molecular target: T1, formyl peptide receptor 1 (FPR1); assay: cell-based or functional assay

| Molecule | neutrophil recruitment (in words) (human neutrophils) | growth inhibition of S. aureus by neutrophils in the microfluidic assay (S. aureus (SH1000-GFP)) | Area of lung [1] | Nuclei [1] | MIC (S. aureus; A8819 (daptomycin susceptible, ST105)) [µM] | MIC (S. aureus; ATCC 29213 / MSSA, ATCC 29213 (MSSA)) [µM] | MIC (S. aureus; MRSA, A5937 (MRSA, ST5)) [µM] | MIC (S. aureus; MRSA, A5948 (MRSA, ST8)) [µM] | MIC (S. aureus; MRSA, A6300 (MRSA, ST5)) [µM] | MIC (S. aureus; MRSA, A8090 (MRSA, ST5)) [µM] | MIC (S. aureus; MRSA, A9719 (MRSA, ST5)) [µM] | MIC (S. aureus; MRSA, A9754 (MRSA, ST8)) [µM] | MIC (S. aureus; MSSA, A9635 (MSSA, ST1892)) [µM] | ERK1/2 phosphorylation at 5 min in CHO cells overexpressing human FPR1, potency of the conjugate against the free peptide (lower potency) [2] [fold] | calcium mobilization in CHO cells overexpressing human FPR1, potency of the conjugate against the free peptide (lower potency) [2] [fold] |
| --- | --- | --- | --- | --- | --- | --- | --- | --- | --- | --- | --- | --- | --- | --- | --- |
| Van-C(H-MLFG-Tz) [C12] | no neutrophil recruitment | no observable growth inhibition | – | – | – | – | – | – | – | – | – | – | – | – | – |
| CN[C@H](CC(C)C)C(=O)N[C@H]1C(=O)N[C@@H](CC(N)=O)C(=O)N[C@H]2C(=O)N[C@H]3C(=O)N[C@H](C(=O)N[C@H](C(=O)O)c4cc(O)cc(O)c4-c4cc3ccc4O)[C@H](O)c3ccc(c(Cl)c3)Oc3cc2cc(c3O[C@@H]2O[C@H](CO)[C@@H](O)[C@H](O)[C@H]2O[C@H]2C[C@](C)(N)[C@H](O)[C@H](C)O2)Oc2ccc(cc2Cl)[C@H]1O [Vancomycin, vancomycin] | no neutrophil recruitment | – | 61.3 and 69.7 and 55.1 and 61.6 and 71.0 and 68.4 and 57.8 | 6013 and 1856 and 2087 and 3027 and 4794 and 2455 | 0.8 ± 0.1 (≈ 1.16 µg/mL) | 1 ± 0.25 (≈ 1.45 µg/mL) | 0.6 ± 0.01 (≈ 0.87 µg/mL) | 0.3 ± 0.03 (≈ 0.435 µg/mL) | 1 ± 0.2 (≈ 1.45 µg/mL) | 0.6 ± 0.01 (≈ 0.87 µg/mL) | 1 ± 0.3 (≈ 1.45 µg/mL) | 1.1 ± 0.06 (≈ 1.59 µg/mL) | 0.6 ± 0.01 (≈ 0.87 µg/mL) | – | – |
| B1 | – | – | – | – | – | – | – | – | – | – | – | – | – | 10 | > 90 |
